Measurements reported in ChEMBL document CHEMBL6182898, “Design, synthesis and bioevaluation of novel hydrazide derivatives as enhancers of immunotherapy and DNA-damage response in antitumor therapy” (Eur J Med Chem, 2025).

How the values were obtained:
K562 [1] = assay: Antiproliferative activity against human K562 cells incubated for 72 hrs by CCK8 assay; type: functional, cell-based; details: K562, 72 h
B16-F10 [2] = assay: Antiproliferative activity against mouse B16-F10 cells incubated for 72 hrs by MTT assay; type: functional, cell-based; details: B16-F10, 72 h
Histone deacetylase 3 = Histone deacetylase 3 (Homo sapiens, UniProt O15379); assay: Inhibition of HDAC3 (unknown origin)
[3] = target: T1, Protein deacetylase HDAC6 (Homo sapiens, UniProt Q9UBN7); assay: Inhibition of HDAC6 (unknown origin)
T1 sequence (Q9UBN7 whole entry): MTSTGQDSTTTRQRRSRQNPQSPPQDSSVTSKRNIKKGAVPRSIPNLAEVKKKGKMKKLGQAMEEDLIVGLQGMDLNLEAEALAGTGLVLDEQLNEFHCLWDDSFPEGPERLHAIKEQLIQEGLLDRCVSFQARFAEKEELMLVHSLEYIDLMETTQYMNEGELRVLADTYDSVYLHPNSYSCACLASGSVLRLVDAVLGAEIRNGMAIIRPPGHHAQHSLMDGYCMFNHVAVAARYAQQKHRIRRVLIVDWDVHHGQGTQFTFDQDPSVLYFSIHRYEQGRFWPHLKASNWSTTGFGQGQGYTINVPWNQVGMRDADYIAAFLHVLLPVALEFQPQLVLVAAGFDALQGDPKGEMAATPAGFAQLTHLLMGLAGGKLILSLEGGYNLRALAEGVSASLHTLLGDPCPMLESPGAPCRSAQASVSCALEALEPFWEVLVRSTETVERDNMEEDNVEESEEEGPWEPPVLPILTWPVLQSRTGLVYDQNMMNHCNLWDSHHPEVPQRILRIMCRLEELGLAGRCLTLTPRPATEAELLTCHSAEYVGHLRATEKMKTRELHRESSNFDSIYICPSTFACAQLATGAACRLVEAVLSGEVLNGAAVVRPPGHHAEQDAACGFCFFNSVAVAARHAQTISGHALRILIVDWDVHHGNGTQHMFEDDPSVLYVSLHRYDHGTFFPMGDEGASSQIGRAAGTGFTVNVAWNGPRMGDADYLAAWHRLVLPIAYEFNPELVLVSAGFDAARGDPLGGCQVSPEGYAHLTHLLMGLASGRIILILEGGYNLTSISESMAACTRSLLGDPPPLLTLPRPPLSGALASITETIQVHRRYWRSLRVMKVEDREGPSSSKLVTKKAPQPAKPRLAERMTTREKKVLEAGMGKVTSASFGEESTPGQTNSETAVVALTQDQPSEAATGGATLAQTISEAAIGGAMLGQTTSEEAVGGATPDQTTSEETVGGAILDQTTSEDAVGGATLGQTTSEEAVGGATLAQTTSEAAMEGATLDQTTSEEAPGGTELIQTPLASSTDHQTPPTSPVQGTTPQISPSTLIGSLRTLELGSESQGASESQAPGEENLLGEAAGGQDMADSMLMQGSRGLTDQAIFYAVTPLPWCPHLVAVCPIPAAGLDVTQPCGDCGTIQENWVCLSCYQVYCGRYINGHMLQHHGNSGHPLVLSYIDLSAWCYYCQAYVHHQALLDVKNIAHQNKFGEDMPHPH

Histone deacetylase 1 = Histone deacetylase 1 (Homo sapiens, UniProt Q13547); assay: Inhibition of HDAC1 (unknown origin)
SK-OV-3 [4] = assay: cells; type: functional; details: Homo sapiens, time 72 hrs
4T1 [5] = assay: Antiproliferative activity against mouse 4T1 cells incubated for 72 hrs by MTT assay; type: functional, cell-based; details: 4T1, 72 h
B16-F10 [6] = assay: cells; type: functional; details: Mus musculus, time 72 hrs
Histone deacetylase 8 = target: T2, Histone deacetylase 8 (Homo sapiens, UniProt Q9BY41); assay: Inhibition of HDAC8 (unknown origin)
T2 sequence (Q9BY41 whole entry): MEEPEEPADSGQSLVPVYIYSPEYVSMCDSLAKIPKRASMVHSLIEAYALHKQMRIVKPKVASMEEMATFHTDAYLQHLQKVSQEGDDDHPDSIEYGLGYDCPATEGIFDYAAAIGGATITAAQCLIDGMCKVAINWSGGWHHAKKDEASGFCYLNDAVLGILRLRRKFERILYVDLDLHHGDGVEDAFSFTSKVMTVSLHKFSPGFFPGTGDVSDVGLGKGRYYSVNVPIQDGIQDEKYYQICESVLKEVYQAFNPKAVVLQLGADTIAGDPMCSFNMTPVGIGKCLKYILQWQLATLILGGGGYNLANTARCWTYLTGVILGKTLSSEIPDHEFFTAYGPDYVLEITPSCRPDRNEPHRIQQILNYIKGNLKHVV

4T1 [7] = assay: cells; type: functional; details: Mus musculus, time 72 hrs
SK-OV-3 [8] = assay: Antiproliferative activity against human SK-OV-3 cells incubated for 72 hrs by MTT assay; type: functional, cell-based; details: SK-OV-3, 72 h
[9] = Antiproliferative activity against human HK-2 cells incubated for 72 hrs by MTT assay
K562 [10] = assay: cells; type: functional; details: Homo sapiens, time 72 hrs
HCT-116 [11] = assay: Antiproliferative activity against human HCT-116 cells incubated for 72 hrs by MTT assay; type: functional, cell-based; details: HCT-116, 72 h
HCT-116 [12] = assay: cells; type: functional; details: Homo sapiens, time 72 hrs

Sequence of Histone deacetylase 1 (Q13547 whole entry): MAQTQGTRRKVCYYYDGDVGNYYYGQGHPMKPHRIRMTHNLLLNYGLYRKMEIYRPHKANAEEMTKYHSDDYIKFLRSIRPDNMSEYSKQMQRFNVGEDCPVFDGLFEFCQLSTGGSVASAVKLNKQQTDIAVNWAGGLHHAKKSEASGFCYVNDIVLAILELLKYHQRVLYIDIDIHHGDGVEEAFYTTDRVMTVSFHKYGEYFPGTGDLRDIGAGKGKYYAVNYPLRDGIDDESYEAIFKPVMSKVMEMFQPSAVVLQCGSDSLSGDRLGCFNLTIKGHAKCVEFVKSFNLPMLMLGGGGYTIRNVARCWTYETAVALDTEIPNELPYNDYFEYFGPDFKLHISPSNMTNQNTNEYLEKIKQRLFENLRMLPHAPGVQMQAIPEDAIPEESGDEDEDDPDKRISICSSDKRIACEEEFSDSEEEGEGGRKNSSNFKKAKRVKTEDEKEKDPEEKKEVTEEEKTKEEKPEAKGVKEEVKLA
Sequence of Histone deacetylase 3 (O15379 whole entry): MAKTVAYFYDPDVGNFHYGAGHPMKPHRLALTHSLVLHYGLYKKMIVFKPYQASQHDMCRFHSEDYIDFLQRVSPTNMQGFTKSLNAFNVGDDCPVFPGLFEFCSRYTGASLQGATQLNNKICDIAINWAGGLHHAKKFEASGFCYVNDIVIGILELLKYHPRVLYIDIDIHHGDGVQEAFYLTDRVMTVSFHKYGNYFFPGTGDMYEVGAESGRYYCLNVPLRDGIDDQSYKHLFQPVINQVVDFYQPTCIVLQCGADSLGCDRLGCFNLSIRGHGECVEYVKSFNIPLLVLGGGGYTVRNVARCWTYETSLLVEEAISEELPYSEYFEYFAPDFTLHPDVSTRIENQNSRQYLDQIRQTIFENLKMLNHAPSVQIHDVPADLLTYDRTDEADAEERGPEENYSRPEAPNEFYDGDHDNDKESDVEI

Work on CCCNNC(=O)CCCCCCNC(=O)c1cnc(-c2ccc3ccccc3c2)s1 yielded an IC50 (K562 [1]) of 2.71 µM, an IC50 (B16-F10 [2]) of 11.1 µM and an IC50 (Histone deacetylase 3) of 0.55 µM. The IC50 [3] was over 10 µM, the IC50 (Histone deacetylase 1) was 3.26 µM and the inhibition at 10 µM (SK-OV-3 [4]) was 81.5%. The IC50 (4T1 [5]) was 14.4 µM, the inhibition at 10 µM (B16-F10 [6]) was 57.6% and the IC50 (Histone deacetylase 8) was over 10 µM. It also gave an inhibition at 10 µM (4T1 [7]) of under 20%, an IC50 (SK-OV-3 [8]) of 4.48 µM and an IC50 at 72 h [9] of 10.8 µM. It also gave an inhibition at 10 µM (K562 [10]) of under 50%, an IC50 (HCT-116 [11]) of 4.14 µM and an inhibition at 10 µM (HCT-116 [12]) of 94.7%.
CCCNNC(=O)CCCCCCNC(=O)c1cnc(-c2ccc(Br)cc2)s1 showed an IC50 (K562 [1]) of 8.12 µM, an IC50 (B16-F10 [2]) of 5.31 µM and an IC50 (Histone deacetylase 3) of 3.43 µM. The IC50 [3] was over 10 µM, the IC50 (Histone deacetylase 1) was over 5 µM and the inhibition at 10 µM (SK-OV-3 [4]) was 60.8%. For the same compound, the IC50 (4T1 [5]) was 14.4 µM, the inhibition at 10 µM (B16-F10 [6]) was 50.7% and the IC50 (Histone deacetylase 8) was over 10 µM. For the same compound, the inhibition at 10 µM (4T1 [7]) was 53%, the IC50 (SK-OV-3 [8]) was 12.7 µM and the IC50 at 72 h [9] was 13.9 µM. The inhibition at 10 µM (K562 [10]) was under 50%, the IC50 (HCT-116 [11]) was 0.79 µM and the inhibition at 10 µM (HCT-116 [12]) was 59.3%.
For CCCNNC(=O)CCCCCCNC(=O)c1cnc(-c2ccc(F)cc2F)s1, the IC50 (K562 [1]) was 5.65 µM, the IC50 (B16-F10 [2]) was 4.74 µM and the IC50 (Histone deacetylase 3) was 0.73 µM. For the same compound, the IC50 [3] was over 10 µM, the IC50 (Histone deacetylase 1) was 0.89 µM and the inhibition at 10 µM (SK-OV-3 [4]) was 82.1%. The IC50 (4T1 [5]) was 12.9 µM, the inhibition at 10 µM (B16-F10 [6]) was 56% and the IC50 (Histone deacetylase 8) was over 10 µM. The inhibition at 10 µM (4T1 [7]) was under 20%, the IC50 (SK-OV-3 [8]) was 7.9 µM and the IC50 at 72 h [9] was 12.2 µM. For the same compound, the inhibition at 10 µM (K562 [10]) was 70.5%, the IC50 (HCT-116 [11]) was 4.77 µM and the inhibition at 10 µM (HCT-116 [12]) was 79.7%.
Work on CCCNNC(=O)CCCCCCNC(=O)c1cnc(-c2ccc(Oc3ccccc3)cc2)s1 yielded an IC50 (K562 [1]) of 4.2 µM, an IC50 (B16-F10 [2]) of 14.8 µM and an IC50 (Histone deacetylase 3) of 1.88 µM. The IC50 [3] was over 10 µM, the IC50 (Histone deacetylase 1) was over 5 µM and the inhibition at 10 µM (SK-OV-3 [4]) was 76%. The IC50 (4T1 [5]) was 11.8 µM, the inhibition at 10 µM (B16-F10 [6]) was 58% and the IC50 (Histone deacetylase 8) was over 10 µM. For the same compound, the inhibition at 10 µM (4T1 [7]) was 40.8%, the IC50 (SK-OV-3 [8]) was 8.66 µM and the IC50 at 72 h [9] was 14.1 µM. It also gave an inhibition at 10 µM (K562 [10]) of under 50%, an IC50 (HCT-116 [11]) of 1.07 µM and an inhibition at 10 µM (HCT-116 [12]) of 73.1%.
